Structure (SMILES)	melting point
CC(=O)Nc1ccc(SSc2ccc(NC(C)=O)cc2C(=O)NC(CC(C)C)C(=O)O)c(C(=O)NC(CC(C)C)C(=O)O)c1 (stereo not drawn)	241 to 242 °C
COc1cc(C(C)C)c2c(c1)S(=O)(=O)N(COC(=O)c1c(C)c3cc(Cl)ccc3n1C)C2=O	183 to 184 °C
Cc1ccc(Cc2cnc(NCCCN(c3ccccc3)c3ccccn3)[nH]c2=O)cn1	216 to 218 °C
COC(=O)C1=CON2CCC34C=CC(O)CC3Oc3c(OC)ccc(c34)C12 (stereo not drawn)	151 to 154 °C
Cc1sc(Cl)cc1C1(c2cccc(-c3cncnc3)c2)N=C(N)N(C)C1=O (stereo not drawn)	141 to 149 °C
COc1cc(Nc2nccc(-c3ccc(N)s3)n2)cc(OC)c1OC	161 to 162 °C
N#CCOc1ccc2cc(-c3ccc(-c4ccccc4)[nH]3)ccc2c1	142 °C
COC(=O)C=Cc1cn(C)nc1[N+](=O)[O-]	110 to 112 °C
Cc1ccc(S(=O)(=O)CC(=O)C(C)(C)C)cc1	119 to 122 °C
CCCc1ccccc1OCCCOc1ccc2c(=O)cc(C(=O)O)oc2c1CC	198 to 199 °C
CCCCC(CCCC)C(=O)O[C@H]1C[C@H](O)C=C2C=C[C@H](C)[C@H](CC[C@@H]3C[C@@H](O)CC(=O)O3)[C@H]21	143 to 145 °C
O=C(N[C@H](Cc1ccc(Cl)c(OC(F)(F)C(F)F)c1)[C@@H](O)c1ccc(F)cc1)c1ccc(F)c2ccccc12 (racemic)	206 to 207 °C
CCCCc1nn(C(CC)c2ccccc2)c(=O)n1Cc1ccc(-c2ccccc2-c2nnn[nH]2)cc1 (stereo not drawn)	72 to 75 °C
CCOC(=O)c1ccc(OCc2cnccn2)cc1	76.1 °C
CCOC(=O)c1ccccc1N(CC(=O)OC(C)(C)C)C(=O)CN1C(=O)c2ccccc2C1=O	127 °C
CN1Cc2c(C(=O)OCCO)ncn2-c2ccc(F)cc2C1=O	202 to 204 °C
CN1CCC2(CCc3cc4ccccc4n3C2)C1 (stereo not drawn)	55 to 58 °C
CNC(=C[N+](=O)[O-])NCc1ccc(Cl)cc1	219 to 220 °C
C=CCc1ccccc1OC[C@@H](O)CNCCc1ccc(NC2CCN(C(=O)NCCCCCCCC)CC2)cc1	73 to 80 °C
Cc1ncoc1C(C)(N)c1ccoc1 (stereo not drawn)	82.5 to 83.5 °C

The remaining lines, values ahead:

melting point	Structure (SMILES)
63 to 78 °C	CC=C1CCC2C3CCC4CC(O)C(OCC)CC4(C)C3C(N(C)C)CC12C (stereo not drawn)
171 °C	O=C(O)CNC(=O)c1cn2nc(NCCCN3CCC(OC(c4ccccc4)c4ccccc4)CC3)ccc2n1
251 to 256 °C	CNC(=O)c1ccccc1Nc1nc(Nc2ccc3c(c2)CCN(S(C)(=O)=O)CC3)ncc1Cl
59 to 60 °C	Clc1ccc(C2=CCCC2)cn1
190 to 194 °C	CCCN(CCC)C1Cc2cc3c(cc2C1)C(=O)N(Cc1ccc(S(N)(=O)=O)cc1)C3=O
195 to 197 °C	O=C(O)C1(CO)CCc2cc(C3CCCCC3)c(Cl)cc21 (stereo not drawn)
166 to 168 °C	CC(C)(C)OC(=O)NC(CC(=O)NC1CC1)C1CC1 (stereo not drawn)
171 to 172 °C	Cn1c(-c2ccccc2)c(C2=CCC(C(=O)O)CC2)c2ccccc21 (stereo not drawn)
129 to 131 °C	O=C1C2CCCCC2C(=O)N1c1c(F)cc(F)cc1F (stereo not drawn)
66.5 to 68 °C	C=C(C)C1CCC(C)(C(=O)O)C1=C (stereo not drawn)
186 to 187 °C	CN(CC(=O)O)C(=O)C(C)(C)Oc1ccc(C(=O)c2ccc(Cl)cc2)cc1
195 °C	O=C1c2cccc(NC(=S)Nc3cccc(Br)n3)c2C2CCCCN12 (stereo not drawn)
108 °C	Cc1ccc2c(c1)c1c(n2CCCl)C(=O)CCC1
184 to 185 °C	Nc1nc(/C(=N/OC2(C(=O)OCc3ccc([N+](=O)[O-])cc3)CCCCC2)C(=O)O)cs1
170 to 172 °C	CCOc1ccc(-c2noc3c(Cl)c(O)ccc23)c(F)c1
70.7 °C	CC(C)N1CCN(C(=O)c2cc([N+](=O)[O-])cc(C(F)(F)F)c2)CC1
213 to 216 °C	Cc1cc(NCCO)c2[nH]ncc2n1
80 to 82 °C	CCOC(=O)CN1Cc2ccccc2C[C@H](NC(=O)OCc2ccccc2)C1=O

— a melting point compilation (Tetko et al.; mined from patent text by program, amines drawn as free bases though some values may be those of a salt)
